Assay results as given in ChEMBL document CHEMBL3244151, “9-hydroxy-1,2,3,4,5,6-hexahydro-1,5-methano-3-benzazocine derivatives as analgesics” (1977).

Tested on: Mus musculus
Assay: Analgesic activity in sc dosed albino dd mouse by tail pressure stimuli method
Format: functional

Row | SMILES | ED50
1 | Br.CN1C[C@@H]2Cc3ccc(O)cc3[C@@](C)(C2)C1 | 8.4 mg/kg
2 | COc1ccc2c3c1O[C@H]1[C@@H](O)C=C[C@H]4[C@@H](C2)N(C)CC[C@@]341.COc1ccc2c3c1O[C@H]1[C@@H](O)C=C[C@H]4[C@@H](C2)N(C)CC[C@@]341.O.O=P(O)(O)O.O=P(O)(O)O [CODEINE PHOSPHATE] | 9.2 mg/kg
3 | Br.C[C@@H]1[C@H]2Cc3ccc(O)cc3[C@]1(C)CN(C)C2 | 32.8 mg/kg
4 | CN1C[C@@H]2Cc3ccccc3[C@@](C)(C2)C1.Cl | > 50 mg/kg
5 | Br.C[C@H]1[C@H]2Cc3ccc(O)cc3[C@]1(C)CN(C)C2 | 28 mg/kg
